Results from ChEMBL document CHEMBL5584231, “Rational design of a new short anticancer peptide with good potential for cancer treatment” (Eur J Med Chem, 2024).
The source made the active and inactive calls. No cut-off for these calls is given here. Non-standard residues stand in square brackets, D forms with d. Residues, ends and D or L forms follow the SMILES beside them. Dip = N[C@H](C(=O)O)C(c1ccccc1)c1ccccc1; Nle(6-COOH) = N[C@@H](CCCCC(=O)O)C(=O)O; Asu = N[C@@H](CCCCCC(=O)O)C(=O)O

What was measured:
[1] = Therapeutic index, ratio of HC10 for mouse RBC to IC50 for cytotoxicity against RG cells (unknown origin); format: toxicity, cell-based; conditions: mouse RBC and RG cells, read-out: TI
[2] = Therapeutic index, ratio of HC10 for mouse RBC to IC50 for cytotoxicity against human HeLa cells; format: toxicity, cell-based; conditions: mouse RBC and HeLa cells, read-out: TI
[3] = Cytotoxicity against RG cells (unknown origin) assessed as inhibition of cell growth incubated for 1 hr by MTT assay; format: functional, cell-based
[4] = Therapeutic index, ratio of HC10 for mouse RBC to IC50 for cytotoxicity against human A549 cells; format: toxicity, cell-based; conditions: mouse RBC and A549 cells, read-out: TI
[5] = tested on: A549; assay: Cytotoxicity against human A549 cells assessed as inhibition of cell growth incubated for 1 hr by MTT assay; format: functional, cell-based; conditions: A549, 1 h
[6] = Cytotoxicity against HK-2 cells assessed as inhibition of cell growth incubated for 1 hr by MTT assay; format: toxicity, cell-based; conditions: human
[7] = Therapeutic index, ratio of HC10 for mouse RBC to IC50 for cytotoxicity against human MCF7 cells; format: toxicity, cell-based; conditions: mouse RBC and MCF7 cells, read-out: TI
[8] = tested on: HeLa; assay: Cytotoxicity against human HeLa cells assessed as inhibition of cell growth incubated for 1 hr by MTT assay; format: functional, cell-based
[9] = tested on: MCF7; assay: Cytotoxicity against human MCF7 cells assessed as inhibition of cell growth incubated for 1 hr by MTT assay; format: functional, cell-based; conditions: MCF7, 1 h
[10] = tested on: Cell membrane; assay: Induction of morphological changes in cell membrane of human MCF7 cells assessed as membrane damage at 1 times IC50 incubated for 1 hr by SEM analysis; format: cell membranes
[11] = Hemolytic activity in mouse RBC at 12.5 uM incubated for 1 hr by absorbance based assay relative to control; format: toxicity, cell-based, Erythrocyte; conditions: red blood cells (erythrocytes), read-out: Activity
[12] = tested on: Cell membrane; assay: Disruption of cell membrane integrity in human MCF7 cells assessed as increase in PI fluorescence measured after 1 hr by laser confocal scanning microscopic analysis; format: cell membranes
[13] = tested on: Cell membrane; assay: Induction of cell membrane damage in human MCF7 cells assessed as nucleic acid leakage at 1 to 2 times IC50 measured after 0.5 to 6 hrs by UV based analysis; format: cell membranes; conditions: time 0.5-6 hrs
[14] = tested on: Cell membrane; assay: Disruption of cell membrane in human MCF7 cells assessed as LDH release at 40 uM incubated for 1 hr by fluorescence based microplate reader analysis relative to control; format: cell membranes
[15] = tested on: Cell membrane; assay: Induction of cell membrane damage in human MCF7 cells assessed as protein leakage at 1 to 2 times IC50 measured after 0.5 to 6 hrs by UV based analysis; format: cell membranes; conditions: time 0.5-6 hrs
[16] = tested on: Cell membrane; assay: Induction of morphological changes in cell membrane of human MCF7 cells assessed as cell depression at 1 times IC50 incubated for 1 hr by SEM analysis; format: cell membranes
[17] = tested on: Cell membrane; assay: Disruption of cell membrane integrity in human MCF7 cells assessed as increase in PI fluorescence at 1 times IC50 by laser confocal scanning microscopic analysis; conditions: time 0-120 min, TDE = time-dependent effect

SMILES | selectivity ratio [1] | selectivity ratio [2] | IC50 [3] | selectivity ratio [4] | IC50 [5] | IC50 at 1 h [6] | selectivity ratio [7] | IC50 [8] | IC50 [9] | Activity [10] | hemolysis at 1 h, 12.5 µM [11] | Activity [12] | Activity [13] | Activity [14] | Activity [15] | Activity [16] | Activity [17]
CC(C)C[C@H](NC(=O)[C@H](CC(C)C)NC(=O)[C@H](CCC(=O)O)NC(=O)[C@H](CCCCN)NC(=O)[C@H](CC(C)C)NC(=O)[C@H](CC(C)C)NC(=O)[C@H](CCCCN)NC(=O)[C@H](CCCCN)NC(=O)[C@H](CC(C)C)NC(=O)[C@H](CC(C)C)NC(=O)[C@H](CCCCN)NC(=O)[C@H](CCCCN)NC(=O)[C@H](CC(C)C)NC(=O)[C@@H](N)CC(C)C)C(N)=O (H-LLKKLLKKLLKELL-NH2) | 0.838 | 0.352 | 6.16 µM | 0.474 | 10.9 µM | 10.8 µM | 0.438 | 14.7 µM | 11.8 µM |  |  |  |  |  |  |  | 
CC(C)C[C@H](NC(=O)[C@H](CCC(=O)O)NC(=O)[C@H](CCCCN)NC(=O)[C@H](CCCCN)NC(=O)[C@H](CC(C)C)NC(=O)[C@H](CC(C)C)NC(=O)[C@H](CCCCN)NC(=O)[C@H](CCCCN)NC(=O)[C@H](CC(C)C)NC(=O)[C@H](CC(C)C)NC(=O)[C@H](CCCCN)NC(=O)[C@H](CCCCN)NC(=O)[C@H](CC(C)C)NC(=O)[C@@H](N)CC(C)C)C(N)=O (H-LLKKLLKKLLKKEL-NH2) | 5.81 | 13.7 | 75.9 µM | 5.86 | 75.3 µM | 73 µM | 4.38 | 32.2 µM | 101 µM |  |  |  |  |  |  |  | 
CC(C)C[C@H](NC(=O)[C@H](CCCCN)NC(=O)[C@H](CCCCN)NC(=O)[C@H](CC(C)C)NC(=O)[C@H](CC(C)C)NC(=O)[C@H](CCCCN)NC(=O)[C@H](CCCCN)NC(=O)[C@H](CC(C)C)NC(=O)[C@H](CC(C)C)NC(=O)[C@H](CCCCN)NC(=O)[C@H](CCCCN)NC(=O)[C@H](CC(C)C)NC(=O)[C@@H](N)CC(C)C)C(=O)N[C@@H](CC(=O)O)C(N)=O (H-LLKKLLKKLLKKLD-NH2) | 11.4 | 31.1 | 32.8 µM | 20 | 18.8 µM | 50.3 µM | 12.2 | 12.1 µM | 30.7 µM |  |  |  |  |  |  |  | 
CC(C)C[C@H](NC(=O)[C@H](CCCCN)NC(=O)[C@H](CCCCN)NC(=O)[C@H](CC(C)C)NC(=O)[C@H](CC(C)C)NC(=O)[C@H](CCCCN)NC(=O)[C@H](CCCCN)NC(=O)[C@H](CC(C)C)NC(=O)[C@H](CC(C)C)NC(=O)[C@H](CCCCN)NC(=O)[C@H](CCCCN)NC(=O)[C@H](CC(C)C)NC(=O)[C@@H](N)CC(C)C)C(=O)N[C@@H](CCCCCC(=O)O)C(N)=O (H-LLKKLLKKLLKKL[Asu]-NH2) | 6.3 | 15.4 | 12.8 µM | 13.5 | 5.97 µM | 15.3 µM | 9.43 | 5.23 µM | 8.55 µM |  |  |  |  |  |  |  | 
CC(C)C[C@H](NC(=O)[C@H](CCCCN)NC(=O)[C@H](CCCCN)NC(=O)[C@H](CC(C)C)NC(=O)[C@H](CC(C)C)NC(=O)[C@H](CCCCN)NC(=O)[C@H](CCCCN)NC(=O)[C@H](CC(C)C)NC(=O)[C@H](CC(C)C)NC(=O)[C@H](CCCCN)NC(=O)[C@H](CCCCN)NC(=O)[C@H](CC(C)C)NC(=O)[C@@H](N)CC(C)C)C(=O)N[C@@H](CCCCC(=O)O)C(N)=O (H-LLKKLLKKLLKKL[Nle(6-COOH)]-NH2) | 9.42 | 25.4 | 20.4 µM | 17.1 | 11.2 µM | 26.4 µM | 13.8 | 7.59 µM | 14 µM |  |  |  |  |  |  |  | 
CC[C@H](C)[C@H](NC(=O)CN)C(=O)NCC(=O)N[C@@H](C)C(=O)N[C@H](C(=O)N[C@@H](CC(C)C)C(=O)N[C@@H](CCCCN)C(=O)N[C@H](C(=O)N[C@@H](CC(C)C)C(=O)N[C@H](C(=O)N[C@H](C(=O)NCC(=O)N[C@@H](CC(C)C)C(=O)N1CCC[C@H]1C(=O)N[C@@H](C)C(=O)N[C@@H](CC(C)C)C(=O)N[C@H](C(=O)N[C@@H](CO)C(=O)N[C@@H](Cc1c[nH]c2ccccc12)C(=O)N[C@H](C(=O)N[C@@H](CCCCN)C(=O)N[C@@H](CCCNC(=N)N)C(=O)N[C@@H](CCCCN)C(=O)N[C@@H](CCCNC(=N)N)C(=O)N[C@@H](CCC(N)=O)C(=O)N[C@@H](CCC(N)=O)C(N)=O)[C@@H](C)CC)[C@@H](C)CC)[C@@H](C)O)[C@@H](C)O)C(C)C)C(C)C [MELITTIN] | 0.859 | 1.44 |  | 0.733 | 1.83 µM | 0.802 µM | 0.747 | 0.934 µM | 1.79 µM | Active | > 85% | Dose-Dependent Effect | Active | 86.8% | Active | Active | Tde
NCCCC[C@H](NC(=O)[C@@H](NC(=O)[C@H](Cc1c[nH]c2ccccc12)NC(=O)[C@H](CCCCN)NC(=O)[C@H](CCCCN)NC(=O)[C@H](Cc1c[nH]c2ccccc12)NC(=O)[C@H](Cc1c[nH]c2ccccc12)NC(=O)[C@H](CCCCN)NC(=O)[C@@H](N)CCCCN)C(c1ccccc1)c1ccccc1)C(N)=O [RUXOTEMITIDE] (H-KKWWKKW[Dip]K-NH2) | 3.6 | 10.6 | 43.2 µM | 2.43 | 64.1 µM | 78.4 µM | 2.45 | 14.7 µM | 63.5 µM |  |  |  |  |  |  |  | 
